Among the data in patent US20170334865A1, “DDR2 INHIBITORS AND METHODS OF USING” (WASHINGTON UNIVERSITY, priority 2014, published 2017) are IC50 values, retold here.

The IC50 is the point on the concentration scale where inhibition reaches its midpoint.

Where two headings read alike, the source gives them in different places.

This assay concerns the target T1, DDR2 extracellular domain (ECD) (Homo sapiens, UniProt Q16832).
T1 sequence (Q16832 22-399 limits assumed): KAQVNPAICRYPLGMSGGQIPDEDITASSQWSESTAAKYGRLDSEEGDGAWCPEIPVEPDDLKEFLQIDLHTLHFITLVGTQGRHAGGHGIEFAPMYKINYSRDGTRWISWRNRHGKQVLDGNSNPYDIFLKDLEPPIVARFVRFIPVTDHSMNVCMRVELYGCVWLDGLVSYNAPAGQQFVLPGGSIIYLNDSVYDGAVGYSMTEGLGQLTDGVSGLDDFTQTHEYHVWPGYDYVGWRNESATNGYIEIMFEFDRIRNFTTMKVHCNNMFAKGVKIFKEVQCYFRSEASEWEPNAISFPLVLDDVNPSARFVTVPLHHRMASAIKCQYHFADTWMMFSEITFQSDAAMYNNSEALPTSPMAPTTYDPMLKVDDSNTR
Nature of the assay: in vitro ELISA-type assay, binding of soluble DDR2 ECD to immobilized collagen triple helical peptide. To be noted: read-out: IC50, Inhibition of DDR2-collagen binding activity. As for the experimental part:
The activity of the synthesized compounds was assayed using an in vitro ELISA-type assay to measure the binding of purified, soluble DDR2 extracellular domain (ECD) to an immobilized substrate. The substrate used was a high affinity, specific, triple helical peptide (see Xu et al., PLoS One. 2012; 7(12): e52209), which represents the minimal DDR2 specific binding domain within collagens I-III.
DDR2-collagen binding activity was measured in the presence of 250 nM, 500 nM, or 2 μM of test compound or DMSO control.
(ELISA stands for enzyme-linked immunosorbent assay.)

As for `CCOc1ccc2nc3ccc(=O)cc-3oc2c1` [7-ethyloxy-phenoxazin-3-one, reference compound], the IC50 (values given in μM) was 4 µM. On the same count and under the same terms, under `CCCCCOc1ccc2nc3ccc(=O)cc-3oc2c1` [WRG-1, 7-pentyloxy-phenoxazin-3-one] stands 3.5 µM.

For `O=c1ccc2nc3ccc(OCc4ccccc4)cc3oc-2c1` [WRG-2, 7-benzyloxy-phenoxazin-3-one], for the setting “values in nM”, the IC50 came to 0.461 µM. As for `COCCOc1ccc2nc3ccc(=O)cc-3oc2c1` [WRG-R-4], for the setting “values given in μM”, the concentration for half-maximal inhibition (IC50) amounted to 14 µM. Turning to `COc1cccc(COc2ccc3nc4ccc(=O)cc-4oc3c2)c1` [WRG-R-5], the IC50 (values in nM) came to 0.393 µM. Consider `O=C(Oc1ccc2nc3ccc(=O)cc-3oc2c1)c1ccccc1` [WRG-R-6], for which the IC50 (values given in μM) was 1.41 µM. For `O=c1ccc2nc3ccc(OS(=O)(=O)c4ccccc4)cc3oc-2c1` [WRG-R-7], the IC50 (values in nM) came to 0.558 µM. `O=c1ccc2nc3ccc(OCc4cccnc4)cc3oc-2c1` [WRG-R-9]: where the note is “values given in μM”, the IC50 came out at 1.2 µM. For `O=c1ccc2nc3ccc(OCc4ccncc4)cc3oc-2c1` [WRG-R-10], the concentration for half-maximal inhibition (IC50) (values in nM) is 0.311 µM. Regarding `O=C(Nc1ccccc1)Oc1ccc2nc3ccc(=O)cc-3oc2c1` [WRG-R-12], the IC50 (values given in μM) is more than 100 µM. Consider `O=c1ccc2nc3ccc(NS(=O)(=O)c4ccccc4)cc3oc-2c1` [WRG-R-20], for which the IC50 (values given in μM) was more than 100 µM. Turning to `O=c1ccc2nc3ccc(OCc4ccc(OC(F)F)cc4)cc3oc-2c1` [WRG-R-27], the IC50 (values in nM) was found to be 0.11 µM.
